Laboratory results from ChEMBL document CHEMBL5579901, “Discovery of Novel [1,2,4]Triazolo[1,5-a]pyrimidine Derivatives as Novel Potent S-Phase Kinase-Associated Protein 2 (SKP2) Inhibitors for the Treatment of Cancer” (J Med Chem, 2024).
Activity calls are given as the source filed them. No cut-off for these calls is given here.

Tests used:
[1] = tested on: PC-3; experiment: Upregulation of p27 protein expression in human PC-3 cells at 5 to 15 uM incubated for 48 hrs by Western blotting analysis; type: functional, cell-based; details: dose 5-15 µM
[2] = tested on: PC-3; experiment: Induction of cell cycle arrest in human PC-3 cells assessed as cells at S phase at 15 uM incubated for 24 hrs by PI staining based flow cytometry (reference value: 22.9%); type: functional
[3] = tested on: MGC-803; experiment: Upregulation of p27 protein expression in human MGC-803 cells at 15 uM by Western blotting analysis; type: functional, cell-based; details: time 6-48 hrs, TDE = time-dependent effect
[4] = tested on: PC-3; experiment: Induction of cell cycle arrest in human PC-3 cells assessed as cells at S phase at 7.5 uM incubated for 36 hrs by PI staining based flow cytometry (reference value: 22.8%); type: functional
[5] = Toxicity against NOD-SCID mouse assessed as change in kidney morphology at 25 to 50 mg/kg, IG administered for 21 days by H and E staining based assay; type: organism-based; details: in vivo, po, 504 h, dose 25-50 mg/kg, time 21 day
[6] = tested on: MGC-803; experiment: Induction of cell cycle arrest in human MGC-803 cells assessed as cells at G0/G1 phase at 5 uM incubated for 36 hrs by PI staining based flow cytometry (reference value: 57.1%); type: functional
[7] = tested on: MGC-803; experiment: Induction of cell cycle arrest in human MGC-803 cells assessed as cells at S phase at 15 uM incubated for 36 hrs by PI staining based flow cytometry (reference value: 18.2%); type: functional
[8] = tested on: MGC-803; experiment: Induction of cell cycle arrest in human MGC-803 cells assessed as cells at S phase at 5 uM incubated for 36 hrs by PI staining based flow cytometry (reference value: 18.2%); type: functional
[9] = Half-life in Sprague-Dawley rat at 1 mg/kg, iv measured upto 24 hrs by LC/MS-MS analysis; type: ADME, organism-based; details: in vivo
[10] = AUClast in Sprague-Dawley rat at 1 mg/kg, iv measured upto 24 hrs by LC/MS-MS analysis; type: ADME, organism-based; details: in vivo
[11] = tested on: PC-3; experiment: Inhibition of cell invasion in human PC-3 cells incubated for 48 hrs by […]; type: functional, cell-based; details: dose 2.5-7.5 µM
[12] = tested on: PC-3; experiment: Induction of cell cycle arrest in human PC-3 cells assessed as cells at G2/M phase at 15 uM incubated for 24 hrs by PI staining based flow cytometry (reference value: 21.4%); type: functional
[13] = Toxicity against NOD-SCID mouse assessed as change in liver morphology at 25 to 50 mg/kg, IG administered for 21 days by H and E staining based assay; type: organism-based; details: in vivo, po, 504 h, dose 25-50 mg/kg, time 21 day
[14] = tested on: PC-3; experiment: Induction of cell cycle arrest in human PC-3 cells assessed as cells at S phase at 5 uM incubated for 36 hrs by PI staining based flow cytometry (reference value: 22.8%); type: functional
[15] = tested on: PC-3; experiment: Inhibition of cell proliferation in human PC-3 cells incubated for 72 hrs by MTT assay; type: functional, cell-based; details: PC-3, 72 h
[16] = Half-life in Sprague-Dawley rat at 50 mg/kg, po measured upto 24 hrs by LC/MS-MS analysis; type: ADME, organism-based; details: in vivo
[17] = tested on: PC-3; experiment: Induction of cell cycle arrest in human PC-3 cells assessed as cells at G0/G1 phase at 5 uM incubated for 36 hrs by PI staining based flow cytometry (reference value: 54.5%); type: functional
[18] = Toxicity against NOD-SCID mouse assessed as change in spleen morphology at 25 to 50 mg/kg, IG administered for 21 days by H and E staining based assay; type: organism-based; details: in vivo, po, 504 h, dose 25-50 mg/kg, time 21 day
[19] = target: T1, Cyclin-dependent kinases regulatory subunit 1/S-phase kinase-associated protein 2 (Homo sapiens) (UniProt P61024+Q13309); experiment: Inhibition of GST-tagged SKP2 (unknown origin) binding to His6-tagged CKS1 (unknown origin) at 50 uM preincubated with SKP2 for 10 mins followed by CKS1 addition for 20 mins and measured after by HTRF method relative to control; type: protein assay; details: time 30.0 min
T1 sequence (P61024 2-79 limits assumed): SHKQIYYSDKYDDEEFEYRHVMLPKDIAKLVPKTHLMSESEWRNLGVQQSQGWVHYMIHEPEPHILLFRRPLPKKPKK
T1 sequence (Q13309 whole entry partner): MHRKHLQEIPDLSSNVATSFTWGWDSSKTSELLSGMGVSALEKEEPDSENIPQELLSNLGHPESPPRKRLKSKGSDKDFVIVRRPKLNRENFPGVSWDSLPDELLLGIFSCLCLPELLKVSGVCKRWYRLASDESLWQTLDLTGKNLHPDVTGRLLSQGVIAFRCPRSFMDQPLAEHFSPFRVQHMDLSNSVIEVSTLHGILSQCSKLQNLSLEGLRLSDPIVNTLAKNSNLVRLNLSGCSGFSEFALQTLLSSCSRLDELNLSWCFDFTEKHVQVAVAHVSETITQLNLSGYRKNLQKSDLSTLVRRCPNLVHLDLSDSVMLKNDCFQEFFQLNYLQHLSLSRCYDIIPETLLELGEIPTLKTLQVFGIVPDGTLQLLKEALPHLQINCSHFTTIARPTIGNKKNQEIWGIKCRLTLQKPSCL

[20] = tested on: PC-3; experiment: Inhibition of DNA synthesis in human PC-3 cells incubated for 24 hrs by EdU staining based fluorescence microscopic analysis; type: functional, cell-based
[21] = tested on: PC-3; experiment: Induction of cell cycle arrest in human PC-3 cells assessed as cells at S phase at 15 uM incubated for 6 hrs by PI staining based flow cytometry (reference value: 22.9%); type: functional
[22] = tested on: PC-3; experiment: Induction of cell cycle arrest in human PC-3 cells assessed as cells at G0/G1 phase at 15 uM incubated for 48 hrs by PI staining based flow cytometry (reference value: 55.1%); type: functional
[23] = tested on: PC-3; experiment: Induction of cell cycle arrest in human PC-3 cells assessed as cells at S phase at 15 uM incubated for 36 hrs by PI staining based flow cytometry (reference value: 22.8%); type: functional
[24] = target: T1, Cyclin-dependent kinases regulatory subunit 1/S-phase kinase-associated protein 2 (Homo sapiens); experiment: Inhibition of GST-tagged SKP2 (unknown origin) binding to His6-tagged CKS1 (unknown origin) incubated for 1 hr by pull down method; type: protein assay
[25] = tested on: MGC-803; experiment: Induction of cell cycle arrest in human MGC-803 cells assessed as cells at G0/G1 phase at 15 uM incubated for 6 hrs by PI staining based flow cytometry (reference value: 57.9%); type: functional
[26] = tested on: MGC-803; experiment: Downregulation of SKP2 protein level in human MGC-803 cells incubated for 48 hrs by Western blotting analysis; type: functional, cell-based; details: dose 5-15 µM
[27] = target: S-phase kinase-associated protein 2 (Homo sapiens) (UniProt Q13309); experiment: Binding affinity to SKP2 in human PC-3 cells assessed as increase in thermal stability at 57 to 68 degreeC incubated for 4 hrs by CETSA; type: cell-based
Chain of S-phase kinase-associated protein 2 (Homo sapiens) (Q13309 whole entry): as the sequence (Q13309 whole entry partner) above

[28] = tested on: MGC-803; experiment: Upregulation of p21 protein expression in human MGC-803 cells at 5 to 15 uM incubated for 48 hrs by Western blotting analysis; type: functional, cell-based; details: dose 5-15 µM
[29] = tested on: MGC-803; experiment: Inhibition of cell invasion in human MGC-803 cells incubated for 48 hrs by […]; type: functional, cell-based; details: dose 2.5-7.5 µM
[30] = tested on: MGC-803; experiment: Induction of cell cycle arrest in human MGC-803 cells assessed as cells at G0/G1 phase at 15 uM incubated for 48 hrs by PI staining based flow cytometry (reference value: 57.9%); type: functional
[31] = tested on: PC-3; experiment: Induction of cell cycle arrest in human PC-3 cells assessed as cells at G0/G1 phase at 15 uM incubated for 6 hrs by PI staining based flow cytometry (reference value: 55.1%); type: functional
[32] = tested on: PC-3; experiment: Induction of cell cycle arrest in human PC-3 cells assessed as cells at G2/M phase at 15 uM incubated for 48 hrs by PI staining based flow cytometry (reference value: 21.4%); type: functional
[33] = tested on: PC-3; experiment: Induction of cell cycle arrest in human PC-3 cells assessed as cells at S phase at 15 uM incubated for 12 hrs by PI staining based flow cytometry (reference value: 22.9%); type: functional
[34] = tested on: MGC-803; experiment: Inhibition of colony formation in human MGC-803 cells at 3 uM incubated for 10 days by crystal violet staining based inverted microscopic analysis; type: functional, cell-based; details: time 10.0 day
[35] = tested on: MGC-803; experiment: Inhibition of colony formation in human MGC-803 cells incubated for 10 days by crystal violet staining based inverted microscopic analysis; type: functional, cell-based; details: dose 1-3 µM, time 10.0 day
[36] = tested on: PC-3; experiment: Inhibition of colony formation in human PC-3 cells at 3 uM incubated for 10 days by crystal violet staining based inverted microscopic analysis; type: functional, cell-based; details: time 10.0 day
[37] = tested on: PC-3; experiment: Induction of cell cycle arrest in human PC-3 cells assessed as cells at S phase at 15 uM incubated for 48 hrs by PI staining based flow cytometry (reference value: 22.9%); type: functional

In the case of `COc1ccc(-c2cc(C)nc3nc(SCc4ccc(Br)cc4)nn23)c(OC)c1`, the Activity [1] is reported as “Active”, the Activity [2] is reported as 38.6% and the Activity [3] is reported as “Tde”. For the same compound, the Activity [4] was 37.2%, the Activity [5] was “Non-Toxic” and the Activity [6] was 49.8%. It also gave an Activity [7] of 44.3%, an Activity [8] of 26.9% and a t1/2 [9] of 1.49 h. The AUC(0-t) at 24 h [10] was 699 ng·h/mL, the inhibition [11] was “Dose-Dependent Effect” and the Activity [12] was 21.1%. The Activity [13] was “Non-Toxic”, the Activity [14] was 28.1% and the IC50 [15] was 11.7 µM. For the same compound, the half-life [16] was 546 min, the Activity [17] was 46.9% and the Activity [18] was “Non-Toxic”. The inhibition [19] was 73.7%, the inhibition [20] was “Dose-Dependent Effect” and the Activity [21] was 26.7%. For the same compound, the Activity [22] was 36.9%, the Activity [23] was 44.3% and the inhibition [24] was “Active”. The Activity [25] was 49.7%, the Activity [26] was “Dose-Dependent Effect” and the Activity [27] was “Active”. The Activity [28] was “Active”, the inhibition [29] was “Dose-Dependent Effect” and the Activity [30] was 40.9%. The Activity [31] was 52.8%, the Activity [32] was 22.5% and the Activity [33] was 32.6%. The inhibition [34] was “Active”, the inhibition [35] was “Dose-Dependent Effect” and the inhibition [36] was “Active”. The Activity [37] was 39.8%.
